Common to all, as to format: in vivo
For one experiment, the system named is wheat powdery mildew. The experiment is described as follows: Fungicidal activity on potted plants, wheat powdery mildew. To be noted: spray on potted plant, inoculation after 24 hours.
Another experiment relates to cucumber downy mildew. The experiment is described as follows: Fungicidal activity on potted plants, cucumber downy mildew. To be noted: spray on potted plant, inoculation after 24 hours.
A further experiment relates to armyworm. The experiment is described as follows: Insecticidal activity, Potter spraying tower, armyworm. To be noted: 150 ppm, mortality 2 to 3 days after treatment. The protocol:
(§1) Determination of insecticidal and acaricidal activities against plant diseases of selected compounds were carried out by following procedure:
(§2) Technical samples were dissolved in acetone and diluted to required concentration with water containing 0.1% of tween 80. Armyworm, diamondback moth and green peach aphid were treated with Potter spraying tower, and culex mosquito was treated with dipping culture method. Mortality investigation of test insects was carried out 2 to 3 days after treatment.

Another experiment concerns diamondback moth. The experiment is described as follows: Insecticidal activity, Potter spraying tower, diamondback moth. To be noted: 150 ppm, mortality 2 to 3 days after treatment. As to the method:
as §1, §2

A further experiment relates to green peach aphid. The experiment is described as follows: Insecticidal activity, Potter spraying tower, green peach aphid. The settings on record: 150 ppm, mortality 2 to 3 days after treatment. The protocol:
as §1, §2

Another experiment deals with culex mosquito. The experiment is described as follows: Insecticidal activity, dipping culture method, culex mosquito. To be noted: 150 ppm, mortality 2 to 3 days after treatment. As to the method:
as §1, §2

A further experiment has as its system cucumber grey mold. The experiment is described as follows: Fungicidal activity on potted plants, cucumber grey mold. To be noted: 500 ppm, spray on potted plant, inoculation after 24 hours.
The next experiment relates to apple ring rot. The experiment is described as follows: Fungicidal activity on potted plants, apple ring rot. The settings on record: 100 ppm. As to the method:
Determination of fungicidal activities against plant diseases of selected compounds were carried out by following procedure:
Technical samples were dissolved in DMF and diluted to required concentration wtih water containing 0.1% tween 80. Test solution was sprayed onto potted plant. Pathogen inoculation was carried out after 24 hours then plants were hold in growth chambers containing constant temperature and moisture for effect. When untreated plant was under desirable disease severity (after 1 week approximately), assessment were carried out by visual observation.

Another experiment concerns wheat head blight. To be noted: 100 ppm.
Another experiment deals with rape sclerotiniose. The experiment is described as follows: Fungicidal activity on potted plants, rape sclerotiniose. The settings on record: 100 ppm.
Another experiment has as its system grape white rot. The experiment is described as follows: Fungicidal activity on potted plants, grape white rot. To be noted: 100 ppm.
Experiment [1] deals with apple alternaria leaf spot. The experiment is described as follows: Fungicidal activity on potted plants, apple alternaria leaf spot. The settings on record: 100 ppm.
The test system of another experiment is tomato early blight. The experiment is described as follows: Fungicidal activity on potted plants, tomato early blight. The settings on record: 100 ppm.
In a further experiment the test system is tomato late blight. To be noted: 100 ppm.
Experiment [2] deals with corn southern leaf blight. The experiment is described as follows: Fungicidal activity on potted plants, corn southern leaf blight. The settings on record: 100 ppm.
The test system of another experiment is grape downy mildew. The experiment is described as follows: Fungicidal activity on potted plants, grape downy mildew. To be noted: 100 ppm.

For `CO/C=C(/C(=O)OC)c1ccccc1COc1cc(-c2ccc(Cl)cc2)no1` [Compound 84], the “control against wheat powdery mildew” value with wheat powdery mildew (50 ppm) and in the experiment with wheat powdery mildew (500 ppm) was 100% throughout. Further, the “control against cucumber downy mildew” value in the experiment with cucumber downy mildew (50 ppm) and in the experiment with cucumber downy mildew (500 ppm) was 100% throughout.

For `CO/C=C(/C(=O)OC)c1ccccc1COc1cc(-c2ccc(OCC(F)(F)F)cc2)nn1C` [Compound 74], the “control against wheat powdery mildew” value with wheat powdery mildew (500 ppm) worked out at 100%. Moreover, the “control against cucumber downy mildew” value in the experiment with cucumber downy mildew (500 ppm) worked out at 100%.

As to `CO/C=C(/C(=O)OC)c1ccccc1COc1cc(-c2ccc(SC)cc2)nn1C` [Compound 165], the “control against wheat powdery mildew” value in the experiment with wheat powdery mildew (500 ppm) is reported as 100%.

Turning to `CO/C=C(/C(=O)OC)c1ccccc1COc1c(C)c(-c2ccc(Cl)cc2)nn1C` [Compound 30], the “control against wheat powdery mildew” value with wheat powdery mildew (50 ppm) and with wheat powdery mildew (500 ppm) was 100% in each case. The “control against cucumber downy mildew” value in the experiment with cucumber downy mildew (50 ppm) and with cucumber downy mildew (500 ppm) was 100% in each case. This molecule gave a control of armyworm in the experiment with armyworm of 100%. Besides, the “control of diamond backmoth” value in the experiment on diamondback moth is 100%. The same molecule gave a control of aphids with green peach aphid of 100%. Further, the “control of culex mosquitoes” value in the experiment with culex mosquito turned out to be 100%.

Consider `CO/N=C(/C(=O)OC)c1ccccc1COc1cc(-c2ccccc2)nn1C` [Compound 247], for which, in the experiment on wheat powdery mildew (500 ppm), the “control against wheat powdery mildew” value worked out at 100%. Besides, the “control against cucumber grey mold” value in the experiment on cucumber grey mold was 100%.

In the case of `CO/C=C(/C(=O)OC)c1ccccc1COc1cc(-c2ccc([N+](=O)[O-])cc2)no1` [Compound 86], the “control against wheat powdery mildew” value in the experiment on wheat powdery mildew (50 ppm) and in the experiment on wheat powdery mildew (500 ppm) was 100% each time. The “control against cucumber downy mildew” value in the experiment with cucumber downy mildew (50 ppm) and in the experiment on cucumber downy mildew (500 ppm) was 100% throughout.

Take `CO/C=C(/C(=O)OC)c1ccccc1COc1cc(-c2ccc(Cl)nc2)nn1C` [Compound 69]: the “control against wheat powdery mildew” value with wheat powdery mildew (50 ppm) and in the experiment with wheat powdery mildew (500 ppm) was 100% in each case. Also, the “control against cucumber downy mildew” value in the experiment on cucumber downy mildew (50 ppm) and in the experiment on cucumber downy mildew (500 ppm) was 100% in each case.

As to `CO/C=C(/C(=O)OC)c1ccccc1COc1cc(-c2ccc(Oc3ccccc3)cc2)nn1C` [Compound 174], the “control against wheat powdery mildew” value with wheat powdery mildew (500 ppm) worked out at 100%.

As to `CO/C=C(/C(=O)OC)c1ccccc1COc1cc(-c2ccc([N+](=O)[O-])cc2)nn1C` [Compound 4], the “control against wheat powdery mildew” value in the experiment on wheat powdery mildew (50 ppm) and in the experiment with wheat powdery mildew (500 ppm) was 100% throughout. The “control against cucumber downy mildew” value with cucumber downy mildew (50 ppm) and in the experiment on cucumber downy mildew (500 ppm) was 100% throughout.

Consider `CNC(=O)/C(=N/OC)c1ccccc1COc1cc(-c2ccc(Cl)cc2)nn1C(C)C` [Compound 435], for which the “control against wheat powdery mildew” value with wheat powdery mildew (500 ppm) is recorded as 100%.

For the molecule `CO/C=C(/C(=O)OC)c1ccccc1COc1cc(-c2ccc(Cl)cc2)nn1C(C)C` [Compound 190], the “control against wheat powdery mildew” value in the experiment on wheat powdery mildew (500 ppm) turned out to be 100%. Further, in the experiment with cucumber downy mildew (500 ppm), the “control against cucumber downy mildew” value turned out to be 100%.

For `CO/C=C(/C(=O)OC)c1ccccc1COc1cc(-c2ccccc2)nn1C` [Compound 1], the “control against wheat powdery mildew” value in the experiment on wheat powdery mildew (50 ppm) and in the experiment on wheat powdery mildew (500 ppm) was 100% in each case. Moreover, the “control against cucumber downy mildew” value in the experiment with cucumber downy mildew (50 ppm) and in the experiment with cucumber downy mildew (500 ppm) was 100% in each case.

Regarding `CO/C=C(/C(=O)OC)c1ccccc1COc1cc(-c2ccccc2)no1` [Compound 83], in the experiment with wheat powdery mildew (500 ppm), the “control against wheat powdery mildew” value came out at 100%. In the experiment on cucumber downy mildew (500 ppm), the “control against cucumber downy mildew” value is 100%.

`CO/C=C(/C(=O)OC)c1ccccc1COc1cc(-c2cc(F)c(Cl)cc2Cl)nn1C` [Compound 11]: in the experiment with wheat powdery mildew (500 ppm), the “control against wheat powdery mildew” value worked out at 100%. Besides, in the experiment with cucumber downy mildew (500 ppm), the “control against cucumber downy mildew” value is listed as 100%.

For the molecule `CNC(=O)/C(=N/OC)c1ccccc1COc1cc(-c2ccc(Cl)cc2)nn1C` [Compound 356], in the experiment on wheat powdery mildew (500 ppm), the “control against wheat powdery mildew” value was determined as 100%.

Take `CO/C=C(/C(=O)OC)c1ccccc1COc1c(Cl)c(-c2ccc(-c3ccc(Cl)cc3)cc2)nn1C` [Compound 179]: the “control against wheat powdery mildew” value in the experiment on wheat powdery mildew (500 ppm) came out at 100%.

In the case of `CO/C=C(/C(=O)OC)c1ccccc1COc1cc(-c2ccc(C(F)(F)F)cc2)nn1C` [Compound 5], the “control against wheat powdery mildew” value in the experiment on wheat powdery mildew (50 ppm) and in the experiment with wheat powdery mildew (500 ppm) was 100% each time. Moreover, the “control against cucumber downy mildew” value in the experiment on cucumber downy mildew (50 ppm) and in the experiment with cucumber downy mildew (500 ppm) was 100% throughout.

In the case of `CO/N=C(/C(=O)OC)c1ccccc1COc1cc(-c2ccc(Cl)nc2)nn1C` [Compound 287], the “control against wheat powdery mildew” value in the experiment on wheat powdery mildew (50 ppm) and in the experiment on wheat powdery mildew (500 ppm) was 100% each time. Moreover, the “control against cucumber downy mildew” value in the experiment with cucumber downy mildew (50 ppm) and with cucumber downy mildew (500 ppm) was 100% each time.

`CO/C=C(/C(=O)OC)c1ccccc1COc1cc(-c2ccc(Cl)cc2)nn1C` [Compound 2]: the “control against wheat powdery mildew” value in the experiment with wheat powdery mildew (50 ppm) and in the experiment on wheat powdery mildew (500 ppm) was 100% in each case. The “control against cucumber downy mildew” value in the experiment on cucumber downy mildew (50 ppm) and in the experiment with cucumber downy mildew (500 ppm) was 100% each time. Moreover, in the experiment with apple ring rot, the “control against apple ring rot” value is given as “more than 80%”. For the same molecule, in the experiment on wheat head blight, the “control against wheat head blight” value is listed as “more than 80%”. The “control against rape sclerotiniose” value in the experiment on rape sclerotiniose was “more than 80%”. Also, the “control against grape white rot” value in the experiment with grape white rot is listed as “more than 80%”. For the same molecule, the “control against apple alternaria leaf spot” value in [1] is “more than 80%”. The “control against tomato early blight” value in the experiment with tomato early blight is on record as “more than 80%”. In addition, the “control against tomato late blight” value in the experiment on tomato late blight is recorded as “more than 80%”. Also, the “control against corn southern leaf blight” value in experiment [2] is reported as “more than 80%”. In addition, in the experiment on grape downy mildew, the “control against grape downy mildew” value is “more than 80%”.

As for `CO/C=C(/C(=O)OC)c1ccccc1COc1cc(-c2ccc(OC)c(OC)c2)nn1C` [Compound 12], the “control against wheat powdery mildew” value in the experiment on wheat powdery mildew (500 ppm) was 100%. In addition, the “control against cucumber downy mildew” value with cucumber downy mildew (500 ppm) worked out at 100%.

For `CO/C=C(/C(=O)OC)c1ccccc1COc1cc(-c2ccc(Cl)nc2)no1` [Compound 151], in the experiment with wheat powdery mildew (500 ppm), the “control against wheat powdery mildew” value is given as 100%. Also, the “control against cucumber grey mold” value in the experiment on cucumber grey mold worked out at 100%.

As for `CO/N=C(/C(=O)OC)c1ccccc1COc1cc(-c2ccc(Cl)cc2)nn1C` [Compound 248], in the experiment on wheat powdery mildew (500 ppm), the “control against wheat powdery mildew” value is 100%. Besides, the “control against cucumber downy mildew” value in the experiment on cucumber downy mildew (500 ppm) is 100%.
